Test [1] concerns SK-OV-3 ovarian adenocarcinoma. Description: Inhibition of Cell Proliferation (14C-thymidine incorporation), SK-OV-3. The class given is cell-based. The conditions noted are these: Homo sapiens, SK-OV-3 cell line. How it is done: (§1) The ability of a test compound to inhibit the proliferation of cell growth was determined by measuring incorporation of ^14C-labelled thymidine into newly synthesized DNA within the cells. […] Cells were trypsinized and counted and 3000-8000 cells were added to each well of a 96-well CytoStar tissue culture treated scintillating microplate (Amersham #RPNQ0160) in complete medium in a volume of 100 μl. Cells were incubated for 24 hours in complete medium at 37° C. in an atmosphere containing 5% CO2. Next, 1 μl of test compound in 100% DMSO was added to the wells of the plate. DMSO only was added to control wells. Cells were incubated for 24 more hours in complete medium at 37° C. in an atmosphere containing 5% CO2. […] The plate was incubated for 24 hours at 37° C. plus 5% CO2 in drug plus ^14C-thymidine. The contents of the plate were discarded into a ^14C radioactive waste container by inverting the plate and the plate was washed twice with 200 μl PBS. 200 μl of PBS is added to each well. […] The degree of methyl ^14C-thymidine incorporation was quantified on a Packard Top Count.

The subject of test [2] is MDA-MB-231. Description: Inhibition of Cell Proliferation (14C-thymidine incorporation), MDA-MB-231. The class given is cell-based. As to conditions: Homo sapiens, MDA-MB-231 cell line. The method, then:
as §1
In general terms: Incorporation of labelled thymidine or its analogues reports DNA synthesis.

The target of test [3] is T1, VEGF-R (vascular endothelial growth factor receptor-2) (Rattus norvegicus, UniProt O08775).
T1 construct: polyhistidine (6xHIS) (N)
T1 sequence (O08775 786-1343): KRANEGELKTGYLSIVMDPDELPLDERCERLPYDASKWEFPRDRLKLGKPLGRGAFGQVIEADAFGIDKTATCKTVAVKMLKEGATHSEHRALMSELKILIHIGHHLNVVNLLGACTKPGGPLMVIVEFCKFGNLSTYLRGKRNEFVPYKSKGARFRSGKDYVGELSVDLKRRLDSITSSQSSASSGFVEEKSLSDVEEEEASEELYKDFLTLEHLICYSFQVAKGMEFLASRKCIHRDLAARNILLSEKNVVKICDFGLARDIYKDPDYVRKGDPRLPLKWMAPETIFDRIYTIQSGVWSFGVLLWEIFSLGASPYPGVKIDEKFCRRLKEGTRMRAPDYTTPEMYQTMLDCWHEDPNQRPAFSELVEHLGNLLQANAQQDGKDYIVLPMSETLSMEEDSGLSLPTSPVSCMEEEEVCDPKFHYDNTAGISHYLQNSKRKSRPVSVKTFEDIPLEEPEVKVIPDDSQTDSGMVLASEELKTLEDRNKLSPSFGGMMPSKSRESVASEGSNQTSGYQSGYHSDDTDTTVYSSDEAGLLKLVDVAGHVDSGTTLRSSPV
The experiment in a line: VEGF-R Screening Assay. Format: biochemical. As to conditions: read-out: VEGF-R IC50.

Test [4] has as its target FGF-R2 (Homo sapiens, UniProt P21802). The experiment in a line: Kinase Selectivity Assay FGF-R2. The class given is biochemical. The conditions noted are these: Tables 2a-2k. The essentials:
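Radiometric ^33P-γ-ATP transfer to a biotinylated peptide substrate captured on streptavidin plates; enzyme in 50 mM Tris-HCl pH 8.0, 0.1% BSA, 1% DMSO, 1 h at 30° C.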

Test [5] deals with T2, HER2 (human epidermal growth factor receptor-2) (Homo sapiens, UniProt P04626).
T2 construct: begins at amino acid 676 followed by the remainder of the HER2 cytoplasmic domain; polyhistidine (N)
T2 sequence (P04626 676-1255 limits assumed): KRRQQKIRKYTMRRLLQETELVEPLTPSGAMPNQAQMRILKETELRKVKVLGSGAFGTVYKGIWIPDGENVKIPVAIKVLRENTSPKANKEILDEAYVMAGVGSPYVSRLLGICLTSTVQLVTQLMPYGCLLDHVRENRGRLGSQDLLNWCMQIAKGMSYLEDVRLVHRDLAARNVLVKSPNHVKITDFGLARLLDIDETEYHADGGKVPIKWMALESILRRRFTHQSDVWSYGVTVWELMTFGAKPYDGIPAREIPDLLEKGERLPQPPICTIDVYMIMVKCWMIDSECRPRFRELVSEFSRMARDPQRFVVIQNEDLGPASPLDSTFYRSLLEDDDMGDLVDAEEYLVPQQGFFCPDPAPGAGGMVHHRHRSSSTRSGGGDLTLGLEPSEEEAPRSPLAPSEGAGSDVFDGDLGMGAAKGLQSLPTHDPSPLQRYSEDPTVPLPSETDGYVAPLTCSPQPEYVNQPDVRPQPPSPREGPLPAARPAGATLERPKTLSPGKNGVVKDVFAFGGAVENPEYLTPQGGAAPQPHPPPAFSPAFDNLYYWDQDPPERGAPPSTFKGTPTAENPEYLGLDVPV
The experiment in a line: Kinase Selectivity Assay HER2. Format: biochemical. As to conditions: Kinase Selectivity, Tables 2a-2k; read-out: HER2 Kinase IC50. The method in brief:
(§2)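 Biotinylated peptide phosphorylation measured as ^33P-γ-ATP incorporation on streptavidin plates after 1 h at 30° C, 1% DMSO final, enzyme in 50 mM Tris-HCl pH 8.0, 0.1% BSA. Compounds in duplicate at 8 concentrations, 100 uM to 10 pM. IC50 from percent inhibition versus log concentration.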

Test [6] deals with T3, CDK2 in complex with cyclin A (Homo sapiens, UniProt P24941).
T3 construct: purchased Upstate Biotech
Description: Kinase Selectivity Assay CDK2. The class given is biochemical. The conditions noted are these: Table 1. The essentials: as §2

[7] abbreviates: Kinase Selectivity, Tables 2a-2k.

pIC50: −log10 of the molar value. Like-named read-outs stand apart in the source and are kept apart here.

IC50 data for nine compounds are collected here from patent publication US6924302B2, “Substituted triazole diamine derivatives as kinase inhibitors” (Ortho McNeil Pharmaceutical, Inc., priority 2000, dated 2005).

Chain of FGF-R2 (P21802 22-821, species assumed): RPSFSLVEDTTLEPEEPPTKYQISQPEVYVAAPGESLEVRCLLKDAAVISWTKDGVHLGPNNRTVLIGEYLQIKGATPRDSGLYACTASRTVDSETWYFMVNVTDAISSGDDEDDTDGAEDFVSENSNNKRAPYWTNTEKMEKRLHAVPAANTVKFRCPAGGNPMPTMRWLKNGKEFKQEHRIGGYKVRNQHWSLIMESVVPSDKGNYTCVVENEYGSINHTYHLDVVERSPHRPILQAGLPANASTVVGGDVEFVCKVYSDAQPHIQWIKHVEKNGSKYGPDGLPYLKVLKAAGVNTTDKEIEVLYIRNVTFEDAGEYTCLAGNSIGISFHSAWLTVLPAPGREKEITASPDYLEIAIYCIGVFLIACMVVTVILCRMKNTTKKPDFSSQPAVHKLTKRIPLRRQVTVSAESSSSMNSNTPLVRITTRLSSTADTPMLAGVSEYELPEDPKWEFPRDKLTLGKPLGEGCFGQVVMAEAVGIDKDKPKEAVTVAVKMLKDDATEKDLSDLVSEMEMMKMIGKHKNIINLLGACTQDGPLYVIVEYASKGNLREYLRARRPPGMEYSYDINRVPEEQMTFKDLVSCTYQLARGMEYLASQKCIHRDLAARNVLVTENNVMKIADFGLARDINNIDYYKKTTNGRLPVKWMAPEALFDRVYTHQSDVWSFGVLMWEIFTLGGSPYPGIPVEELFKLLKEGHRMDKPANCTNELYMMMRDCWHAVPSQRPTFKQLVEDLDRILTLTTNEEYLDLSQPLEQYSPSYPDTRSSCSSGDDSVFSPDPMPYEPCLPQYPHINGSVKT

For the compound `Nc1nc(Nc2ccc(S(N)(=O)=O)cc2)nn1C(=O)c1c(F)cccc1F` [Cpd 1, 4-[[5-amino-1-(2,6-difluorobenzoyl)-1H-1,2,4-triazol-3-yl]amino]-benzenesulfonamide], the concentration for half-maximal inhibition (IC50) in test [1] was 750 nM; in test [2], 587 nM.

For `Nc1nc(Nc2ccc(S(N)(=O)=O)cc2)nn1C(=O)c1cccs1` [Cpd 14, 4-[[5-amino-1-(2-thienylcarbonyl)-1H-1,2,4-triazol-3-yl]amino]-benzenesulfonamide], the pIC50 was 7.59 in test [3] (setting [7]), 7.57 in test [3] (Table 1) and 7.57 in test [4]. The results for the IC50 in test [1] and in test [2] were 727 nM and 756 nM, respectively.

As for `Nc1nc(Nc2ccc(S(=O)(=O)N3CCCCC3)cc2)nn1C(=O)c1cccs1` [Cpd 23, N^3-[4-(1-piperidinylsulfonyl)phenyl]-1-(2-thienylcarbonyl)-1H-1,2,4-triazole-3,5-diamine], the pIC50 in test [3] (setting [7]) is 7.46; in test [3] (Table 1) it was 7.45. In addition, the IC50 in test [1] stood at 1420 nM; in test [2], 868 nM.

For `CCc1ccc(C(=O)n2nc(Nc3ccc(S(N)(=O)=O)cc3)nc2N)s1` [Cpd 32, 4-[[5-amino-1-[(5-ethyl-2-thienyl)carbonyl]-1H-1,2,4-triazol-3-yl]amino]-benzenesulfonamide], the pIC50 in test [3] (setting [7]) is 7.66; in test [3] (Table 1) it was 7.66; in test [5], 8.05. The compound also showed an IC50 in test [2] of 131 nM.

On to `Cc1nc(C)c(C(=O)n2nc(Nc3ccc(S(N)(=O)=O)cc3)nc2N)s1` [Cpd 34, 4-[[5-amino-1-[(2,4-dimethyl-5-thiazolyl)carbonyl]-1H-1,2,4-triazol-3-yl]amino]-benzenesulfonamide], for which half-maximal inhibition in test [2] (IC50) was put at 898 nM.

For the compound `Nc1nc(Nc2ccc(S(N)(=O)=O)cc2)nn1C(=O)c1sccc1Br` [Cpd 35, 4-[[5-amino-1-[(3-bromo-2-thienyl)carbonyl]-1H-1,2,4-triazol-3-yl]amino]-benzenesulfonamide], the pIC50 in test [3] (Table 1) is 7.33. The compound further displayed an IC50 in test [2] of 1140 nM.

The compound `Nc1nc(Nc2ccc(S(N)(=O)=O)cc2)nn1C(=O)C1CCCC1` [Cpd 38, 4-[[5-amino-1-(cyclopentylcarbonyl)-1H-1,2,4-triazol-3-yl]amino]-benzenesulfonamide] yielded an IC50 in test [2] of 6760 nM.

Consider `Nc1nc(Nc2ccc(S(N)(=O)=O)cc2)nn1C(=O)C1CCCCC1` [Cpd 39, 4-[[5-amino-1-(cyclohexylcarbonyl)-1H-1,2,4-triazol-3-yl]amino]-benzenesulfonamide], for which the midpoint of inhibition in test [2], the IC50, lay at 2910 nM.

Take `CNS(=O)(=O)c1ccc(Nc2nc(N)n(C(=O)c3c(F)ccc(C)c3F)n2)cc1` [Cpd 81, 4-[[5-amino-1-(2,6-difluoro-3-methylbenzoyl)-1H-1,2,4-triazol-3-yl]amino]-N-methyl-benzenesulfonamide]: the pIC50 was 9.00 in test [6] and 6.57 in test [4]. The same compound came in with an IC50 in test [1] of 348 nM.

As usually defined, the IC50 is the point on the concentration scale where inhibition reaches its midpoint. A high value points to a need for much substance. Usually pIC50 stands for the negative decadic logarithm of the IC50, by convention in mol/L.
